Laboratory results from ChEMBL document CHEMBL2434830, “Inhibitory constituents from the aerial parts of Polygala tenuifolia on LPS-induced NO production in BV2 microglia cells” (Bioorg Med Chem Lett, 2013).
pIC50: −log10 of the molar value.

Key:
BV-2 [1] = assay: Cytotoxicity against mouse BV2 cells assessed as cell viability at 50 uM by MTT assay; assay type: cell-based; conditions: bv-2, 50 µM
BV-2 [2] = assay: Antiinflammatory activity in mouse BV2 cells assessed as inhibition of LPS-induced NO production after 24 hrs by Griess assay; assay type: functional, cell-based; conditions: BV-2, 24 h

Row | SMILES | Activity (BV-2 [1]) | pIC50 (BV-2 [2])
1 | COc1c(O)cc2oc3ccc(O)cc3c(=O)c2c1O | Toxic | 
2 | COc1cc2oc3cc(O)c(O)cc3c(=O)c2c(O)c1OC | Toxic | 
3 | O=c1c2cc(O)ccc2oc2cc3c(c(O)c12)OCO3 |  | 4.69
4 | O=c1c2cc(O)ccc2oc2c(O[C@@H]3O[C@H](CO)[C@@H](O)[C@H](O)[C@H]3O)ccc(O)c12 |  | 4.42
5 | O=c1c2ccc(O)cc2oc2cccc(O)c12 | Toxic | 
6 | COc1ccc(O)c2c(=O)c3cc(O)ccc3oc12 |  | 5.13
7 | COc1cc2c(=O)c3c(O)cc(O)cc3oc2cc1O [ALLOATHYRIOL] |  | < 4.00
8 | COc1ccc2c(c1)c(CC(=O)O)c(C)n2C(=O)c1ccc(Cl)cc1 [INDOMETHACIN] |  | 5.15
9 | O=c1c2cc(O)c(O)cc2oc2cc(O)c([C@@H]3O[C@H](CO)[C@@H](O)[C@H](O)[C@H]3O)c(O)c12 [MANGIFERIN] |  | 4.41
